# In patent publication US8530478B2, “Piperazine derivatives used as CAV2.2 calcium channel modulators” (Convergence Pharmaceuticals Limited, priority 2008, dated 2013):
# Structures can show the parent of a compound that is named as a salt.
# Molecular target: T1, hCav2.2 (Homo sapiens, UniProt Q00975)
# T1 construct: expressed in transfected cells; plasmids pCIN5-hCav2.2, pCIH-hCav β3, pCIP-α2δ1
# Assay: hCav2.2 assay (IonWorks planar array electrophysiology, HEK293 stable cell line)
# Format: cell-based
# Settings: inhibition of current elicited by the 1st depolarising pulse; HEK293 cells expressing human Cav2.2 α/β3/α2δ1; tested in the form described in the Examples; read-out: mean pIC50 (tonic pIC50) (converted)
# Protocol: Compounds of the invention may be tested for in vitro biological activity in the hCav2.2 assay in accordance with the following studies:
# Stable cell lines expressing the human Cav2.2 α (α1B) subunit, along with the human β3 and α2δ1 auxiliary subunits were created following sequential transfection and selection of human embryonic kidney (HEK293) cells. HEK293 cells were cultured in Dulbecco's modified Eagles media/F12 media (Invitrogen, Cat # 041-95750V) containing 10% foetal bovine serum, with added L-glutamine (2 mM; Invitrogen, Cat # 25030-024) and non-essential amino acids (5%; Invitrogen, Cat # 11140-035). Initially HEK293 cells were transfected with two plasmid vectors for expression of the hCav2.2 α subunit (pCIN5-hCav2.2 which carries a neomycin resistance marker) and the hCav β3 subunit (pCIH-hCav β3 which carries a hygromycin resistance marker). Clonal cell lines were isolated following selection in media supplemented with 0.4 mg ml^−1 Geneticin G418 (Invitrogen, Cat # 10131-027) and 0.1 mg ml^−1 hygromycin (Invitrogen, Cat # 10687-010). These clonal cell lines were assessed for Cav2.2 α/β3-mediated current expression using the IonWorks planar array electrophysiology technology (described below). A clonal line was identified that gave a reasonable level of functional Cav2.2 α/β3 current expression. This cell line was transfected with a plasmid vector for expression of the human α2δ1 subunit (pCIP-α2δ1 which carries a puromycin resistance marker) and clonal cell lines isolated following selection in media containing 0.62 μg ml^−1 puromycin (Sigma, Cat # P-7255), in addition to 0.4 mg ml^−1 Geneticin G418 and 0.1 mg ml^−1 hygromycin. Several cell lines were identified that gave robust levels of Cav2.2 α/β3/α2δ1-mediated current expression and one of these was selected for compound profiling. Expression of all three subunits within this cell line was continuously maintained by the inclusion of G418 (0.4 mg ml^−1), hygromycin (0.1 mg ml^−1) and puromycin (0.62 μg ml^−1). Cells were maintained at 37° C. in a humidified environment containing 5% CO2 in air. Cells were liberated from the T175 culture flasks for passage and harvesting using TrpLE (Invitrogen, Cat # 12604-013).
# Cells were grown to 30-60% confluence in T175 flasks and maintained at 30° C. for 24 hrs prior to recording. Cells were lifted by removing the growth media, washing with Ca^2+ free PBS (Invitrogen, Cat #14190-094) and incubating with 3 ml of warmed (37° C.) TrpLE (Invitrogen, Cat # 12604-013) for 6 minutes. Lifted cells were suspended in 10 ml of extracellular buffer. Cell suspension was then placed into a 15 ml tube and centrifuged for 2 minutes at 700 rpm. After centrifugation, the supernatant was removed and the cell pellet was resuspended in 4.5 ml of extracellular solution.
# Currents were recorded at room temperature (21-23° C.) using the IonWorks planar array electrophysiology technology (Molecular Devices Corp.). Stimulation protocols and data acquisition were carried out using a microcomputer (Dell Pentium 4). In order to determine planar electrode hole resistances (Rp), a 10 mV, 160 ms potential difference was applied across each hole. These measurements were performed before cell addition. After cell addition a seal test was performed prior to antibiotic (amphotericin) circulation to achieve intracellular access. Leak subtraction was conducted in all experiments by applying a 160 ms hyperpolarizing (10 mV) prepulse 200 ms before the test pulses to measure leak conductance. Test pulses stepping from the holding potential (VH) of −90 mV to +10 mV were applied for 20 ms and repeated 10 times at a frequency of 10 Hz. In all experiments, the test pulse protocol was performed in the absence (pre-read) and presence (post-read) of a compound. Pre- and post-reads were separated by a compound addition followed by a 3-3.5 min incubation. […]
# T1 sequence (Q00975 whole entry): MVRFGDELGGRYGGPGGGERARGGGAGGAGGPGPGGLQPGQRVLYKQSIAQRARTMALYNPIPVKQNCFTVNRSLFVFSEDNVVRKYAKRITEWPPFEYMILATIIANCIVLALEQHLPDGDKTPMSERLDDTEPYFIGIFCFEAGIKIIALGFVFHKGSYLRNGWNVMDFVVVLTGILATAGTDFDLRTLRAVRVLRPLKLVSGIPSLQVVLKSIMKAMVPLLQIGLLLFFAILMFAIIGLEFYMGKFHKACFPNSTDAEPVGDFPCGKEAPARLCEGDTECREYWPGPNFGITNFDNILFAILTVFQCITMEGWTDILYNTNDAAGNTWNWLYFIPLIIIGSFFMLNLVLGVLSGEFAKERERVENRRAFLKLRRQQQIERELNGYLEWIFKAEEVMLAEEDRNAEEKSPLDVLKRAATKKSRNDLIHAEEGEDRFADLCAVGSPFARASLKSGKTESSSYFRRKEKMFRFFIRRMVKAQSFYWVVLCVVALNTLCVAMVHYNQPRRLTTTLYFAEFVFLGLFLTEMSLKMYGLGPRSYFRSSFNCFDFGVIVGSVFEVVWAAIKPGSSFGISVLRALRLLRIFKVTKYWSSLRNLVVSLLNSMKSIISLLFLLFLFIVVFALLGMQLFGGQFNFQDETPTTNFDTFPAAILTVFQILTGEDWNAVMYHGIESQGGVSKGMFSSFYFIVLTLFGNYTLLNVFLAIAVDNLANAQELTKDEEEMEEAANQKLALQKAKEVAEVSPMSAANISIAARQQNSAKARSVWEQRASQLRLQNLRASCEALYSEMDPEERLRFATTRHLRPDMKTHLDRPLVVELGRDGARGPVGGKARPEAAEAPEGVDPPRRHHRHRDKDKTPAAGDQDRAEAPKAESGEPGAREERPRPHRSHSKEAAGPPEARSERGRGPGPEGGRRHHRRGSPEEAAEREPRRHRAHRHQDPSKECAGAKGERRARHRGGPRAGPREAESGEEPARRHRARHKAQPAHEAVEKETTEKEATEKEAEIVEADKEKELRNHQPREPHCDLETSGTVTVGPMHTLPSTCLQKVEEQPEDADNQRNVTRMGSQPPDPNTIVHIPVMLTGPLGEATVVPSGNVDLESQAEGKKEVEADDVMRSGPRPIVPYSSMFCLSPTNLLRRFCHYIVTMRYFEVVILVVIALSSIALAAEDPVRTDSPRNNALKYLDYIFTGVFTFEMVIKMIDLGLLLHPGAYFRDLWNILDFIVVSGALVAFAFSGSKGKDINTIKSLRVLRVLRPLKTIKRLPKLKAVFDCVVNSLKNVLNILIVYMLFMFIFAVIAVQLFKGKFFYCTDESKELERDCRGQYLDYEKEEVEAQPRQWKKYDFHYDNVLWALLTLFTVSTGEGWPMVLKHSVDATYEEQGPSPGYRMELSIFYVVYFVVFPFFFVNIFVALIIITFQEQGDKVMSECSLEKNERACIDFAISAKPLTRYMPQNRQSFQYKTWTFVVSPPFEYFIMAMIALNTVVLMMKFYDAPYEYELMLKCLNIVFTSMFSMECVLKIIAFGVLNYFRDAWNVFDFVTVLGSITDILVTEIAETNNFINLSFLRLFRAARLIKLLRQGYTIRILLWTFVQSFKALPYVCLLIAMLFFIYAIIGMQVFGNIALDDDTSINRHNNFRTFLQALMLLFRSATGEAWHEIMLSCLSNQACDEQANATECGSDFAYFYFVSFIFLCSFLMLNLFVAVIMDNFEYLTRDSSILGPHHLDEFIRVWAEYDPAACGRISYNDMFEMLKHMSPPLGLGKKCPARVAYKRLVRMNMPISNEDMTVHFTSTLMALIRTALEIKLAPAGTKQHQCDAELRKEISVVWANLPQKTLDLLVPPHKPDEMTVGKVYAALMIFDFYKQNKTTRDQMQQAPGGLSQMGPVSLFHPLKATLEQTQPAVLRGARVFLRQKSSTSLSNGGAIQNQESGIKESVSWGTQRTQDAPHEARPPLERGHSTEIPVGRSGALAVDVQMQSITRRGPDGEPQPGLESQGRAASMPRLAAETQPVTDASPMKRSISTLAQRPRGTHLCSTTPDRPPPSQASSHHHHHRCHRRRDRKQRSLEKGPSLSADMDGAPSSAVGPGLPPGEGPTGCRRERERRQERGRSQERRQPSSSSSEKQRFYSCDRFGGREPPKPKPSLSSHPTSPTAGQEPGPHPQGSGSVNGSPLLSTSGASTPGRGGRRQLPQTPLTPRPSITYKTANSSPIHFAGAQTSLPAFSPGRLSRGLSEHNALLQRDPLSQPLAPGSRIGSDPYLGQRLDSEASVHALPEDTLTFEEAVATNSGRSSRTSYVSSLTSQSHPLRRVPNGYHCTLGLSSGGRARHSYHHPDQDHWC
# T1 sequence (P54284 whole entry partner): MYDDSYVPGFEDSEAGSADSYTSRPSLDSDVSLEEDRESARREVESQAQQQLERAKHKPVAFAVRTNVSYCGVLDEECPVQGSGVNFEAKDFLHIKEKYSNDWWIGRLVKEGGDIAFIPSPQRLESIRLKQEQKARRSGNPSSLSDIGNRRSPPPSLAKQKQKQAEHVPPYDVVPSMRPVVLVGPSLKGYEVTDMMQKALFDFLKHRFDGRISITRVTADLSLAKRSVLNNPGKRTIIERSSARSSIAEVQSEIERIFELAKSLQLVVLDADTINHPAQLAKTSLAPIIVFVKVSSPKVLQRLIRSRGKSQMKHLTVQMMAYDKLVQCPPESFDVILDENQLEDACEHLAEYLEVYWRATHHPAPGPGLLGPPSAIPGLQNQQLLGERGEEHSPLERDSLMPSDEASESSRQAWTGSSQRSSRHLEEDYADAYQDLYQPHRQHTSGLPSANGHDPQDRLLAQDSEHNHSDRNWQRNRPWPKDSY
# T1 sequence (P54289 25-956 partner): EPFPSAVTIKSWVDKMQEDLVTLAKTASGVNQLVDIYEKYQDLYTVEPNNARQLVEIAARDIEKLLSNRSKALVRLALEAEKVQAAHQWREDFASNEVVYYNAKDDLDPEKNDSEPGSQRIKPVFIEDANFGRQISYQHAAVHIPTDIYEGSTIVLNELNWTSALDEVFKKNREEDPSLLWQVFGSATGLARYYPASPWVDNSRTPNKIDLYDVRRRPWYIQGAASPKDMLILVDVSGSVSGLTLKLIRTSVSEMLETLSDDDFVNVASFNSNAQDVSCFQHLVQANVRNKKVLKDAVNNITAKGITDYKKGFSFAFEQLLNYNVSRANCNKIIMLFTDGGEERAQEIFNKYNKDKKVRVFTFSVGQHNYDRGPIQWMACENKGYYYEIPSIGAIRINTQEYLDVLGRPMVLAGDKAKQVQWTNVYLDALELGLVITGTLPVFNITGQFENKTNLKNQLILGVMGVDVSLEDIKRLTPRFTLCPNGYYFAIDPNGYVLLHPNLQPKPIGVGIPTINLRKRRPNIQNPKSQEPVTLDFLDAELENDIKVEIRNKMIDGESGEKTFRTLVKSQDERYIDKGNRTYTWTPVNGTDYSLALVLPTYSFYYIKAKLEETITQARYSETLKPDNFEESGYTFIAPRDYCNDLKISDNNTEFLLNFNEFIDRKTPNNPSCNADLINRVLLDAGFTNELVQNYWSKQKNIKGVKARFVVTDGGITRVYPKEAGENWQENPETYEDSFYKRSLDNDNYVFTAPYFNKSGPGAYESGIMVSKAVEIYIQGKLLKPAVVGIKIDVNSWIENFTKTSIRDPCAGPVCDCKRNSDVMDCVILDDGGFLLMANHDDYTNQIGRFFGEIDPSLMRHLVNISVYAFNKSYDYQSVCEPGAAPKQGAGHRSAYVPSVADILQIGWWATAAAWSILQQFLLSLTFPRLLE
# T1 sequence (P54289 957-1103 partner): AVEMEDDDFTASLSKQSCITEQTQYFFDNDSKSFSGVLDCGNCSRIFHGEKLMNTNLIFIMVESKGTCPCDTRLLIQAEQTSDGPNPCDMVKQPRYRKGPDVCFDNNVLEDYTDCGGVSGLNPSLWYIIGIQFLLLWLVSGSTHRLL
row,Structure (SMILES),IC50 [µM]
1,"Cc1cccnc1C(=O)N1CCN(S(=O)(=O)c2ccc(C(F)(F)F)cc2)[C@@H](C)C1 [Example 14, (2S)-2-methyl-4-[(3-methyl-2-pyridinyl)carbonyl]-1-{[4-(trifluoromethyl)phenyl]sulfonyl}piperazine]",≥ 31.6
2,"Cc1cccc(C(=O)N2CCN(S(=O)(=O)c3ccc(C(F)(F)F)cc3)CC2)n1 [Example 2, 1-[(6-Methyl-2-pyridinyl)carbonyl]-4-{[4-(trifluoromethyl)phenyl]sulfonyl}piperazine]",≥ 31.6
3,"C[C@@H]1CN(S(=O)(=O)c2ccc(Cl)cc2)CCN1C(=O)c1ccccn1 [Example 11, (2R)-4-[(4-chlorophenyl)sulfonyl]-2-methyl-1-(2-pyridinylcarbonyl)piperazine]",≥ 31.6
4,"Cc1cccnc1C(=O)N1CCN(S(=O)(=O)c2ccc(C(F)(F)F)cc2)C[C@@H]1C [Example 1, (2S)-2-Methyl-1-[(3-methyl-2-pyridinyl)carbonyl]-4-{[4-(trifluoromethyl)phenyl]sulfonyl}piperazine hydrochloride]",≥ 31.6
5,"Cc1cccnc1C(=O)N1CCN(S(=O)(=O)c2ccc(C(F)(F)F)cc2)CC1 [Example 3, 1-[(3-Methyl-2-pyridinyl)carbonyl]-4-{[4-(trifluoromethyl)phenyl]sulfonyl}piperazine]",≥ 31.6
6,"C[C@H]1CN(C(=O)c2ccccn2)CCN1S(=O)(=O)c1ccc(Cl)cc1 [Example 6, (2S)-1-[(4-Chlorophenyl)sulfonyl]-2-methyl-4-(2-pyridinylcarbonyl)piperazine hydrochloride]",≥ 31.6
7,"C[C@H]1CN(S(=O)(=O)c2ccc(C#N)cc2)CCN1C(=O)c1ccccn1 [Example 12, 4-{[(3S)-3-methyl-4-(2-pyridinylcarbonyl)-1-piperazinyl]sulfonyl}benzonitrile]",≥ 31.6
8,"Cc1cc(C(=O)N2CCN(S(=O)(=O)c3ccc(C#N)cc3)C[C@@H]2C)ccn1 [Example 15, 4-({(3S)-3-methyl-4-[(2-methyl-4-pyridinyl)carbonyl]-1-piperazinyl}sulfonyl)benzonitrile]",≥ 31.6
9,"Cc1cccnc1C(=O)N1CCN(S(=O)(=O)c2ccc(C(F)(F)F)cc2)[C@H](C)C1 [Example 13, (2R)-2-methyl-4-[(3-methyl-2-pyridinyl)carbonyl]-1-{[4-(trifluoromethyl)phenyl]sulfonyl}piperazine]",≥ 31.6
10,"C[C@H]1CN(S(=O)(=O)c2ccc(C(F)(F)F)cc2)CCN1C(=O)c1ccccn1 [Example 4, (2S)-2-methyl-1-(2-pyridinylcarbonyl)-4-{[4-(trifluoromethyl)phenyl]sulfonyl}piperazine formic acid salt (1:1)]",≥ 31.6
11,"Cc1cc(C(=O)N2CCN(S(=O)(=O)c3ccc(C(F)(F)F)cc3)CC2)ccn1 [Example 9, 1-[(2-Methyl-4-pyridinyl)carbonyl]-4-{[4-(trifluoromethyl)phenyl]sulfonyl}piperazine]",≥ 31.6
12,"O=C(c1ccc(-c2ccccn2)cn1)N1CCN(S(=O)(=O)c2ccc(C(F)(F)F)cc2)CC1 [Example 7, 6′[(4-{[4-(Trifluoromethyl)phenyl]sulfonyl}-1-piperazinyl)carbonyl]-2,3′-bipyridine]",≥ 31.6
13,"O=C(c1cc(-c2ccccn2)ccn1)N1CCN(S(=O)(=O)c2ccc(C(F)(F)F)cc2)CC1 [Example 5, 2′-[(4-{[4-(Trifluoromethyl)phenyl]sulfonyl}-1-piperazinyl)carbonyl]-2,4′-bipyridine]",≥ 31.6
14,"O=C(c1ccncc1)N1CCN(S(=O)(=O)c2ccc(C(F)(F)F)cc2)CC1 [Example 8, 1-(4-Pyridinylcarbonyl)-4-{[4-(trifluoromethyl)phenyl]sulfonyl}piperazine]",≥ 31.6
15,"Cc1cc(C(=O)N2CCN(S(=O)(=O)c3ccc(C(F)(F)F)cc3)C[C@@H]2C)ccn1 [Example 10, (2S)-2-methyl-1-[(2-methyl-4-pyridinyl)carbonyl]-4-{[4-(trifluoromethyl)phenyl]sulfonyl}piperazine formic acid salt (1:1)]",≥ 31.6
